Active and inactive are the calls of the source. Cut-off read from the data, not from the text of the source, for most assays here: actives have a measured IC50 and inactives only a lower limit.
Key:
[1] = target: T1, E3 ubiquitin-protein ligase XIAP (Homo sapiens, UniProt P98170); test: Counter Screen using XIAP-Bir3 for Chemical Antagonists of Bir1/2 domains of IAP-family anti-apoptotic proteins. [Related pubchem assays (depositor defined):AID1018, AID1449, AID1514, AID1638, AID1749, AID1750, AID488957, AID488963]
[2] = target: T1, E3 ubiquitin-protein ligase XIAP; test: small molecules displacing peptide from XIAP – biochemical, IAP family, fluorescence polarization (AID 1018); format: functional
SUMO-activating enzyme [3] = target: T2, SUMO-activating enzyme (Homo sapiens, UniProt Q9UBT2); test: blockers of UBC9-mediated SUMO conjugation – biochemical, AlphaScreen, SUMOylation inhibitor project, confirmation (AID 2018); format: functional
[4] = Luminescence Cell-Based Dose Retest to Confirm Inhibitors of Cancer Stem Cells. [Related pubchem assays (depositor defined):AID2717, AID2721]; format: functional; settings: Homo sapiens
SUMO-activating enzyme [5] = target: T2, SUMO-activating enzyme; test: blockers of SAE1/SAE2–UBC9 SUMO transfer – biochemical, HTRF, uHTS, primary screen (AID 2006); format: protein-complex assay
[6] = target: T3, Heat shock factor protein 1 (Mus musculus, UniProt P38532); test: enhancement of HSF1-driven luciferase signal – cell-based, NIH3T3, luminescence, dose retest, confirmation (AID 435004); format: functional;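 note: stress induced by proteasome inhibitor MG132 added 30 min after compound; luciferase reporter driven by HSF1 response element in NIH3T3 cells; actives raise luminescence as potentiators of the MG132 stress response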
T3 sequence (P38532 whole entry): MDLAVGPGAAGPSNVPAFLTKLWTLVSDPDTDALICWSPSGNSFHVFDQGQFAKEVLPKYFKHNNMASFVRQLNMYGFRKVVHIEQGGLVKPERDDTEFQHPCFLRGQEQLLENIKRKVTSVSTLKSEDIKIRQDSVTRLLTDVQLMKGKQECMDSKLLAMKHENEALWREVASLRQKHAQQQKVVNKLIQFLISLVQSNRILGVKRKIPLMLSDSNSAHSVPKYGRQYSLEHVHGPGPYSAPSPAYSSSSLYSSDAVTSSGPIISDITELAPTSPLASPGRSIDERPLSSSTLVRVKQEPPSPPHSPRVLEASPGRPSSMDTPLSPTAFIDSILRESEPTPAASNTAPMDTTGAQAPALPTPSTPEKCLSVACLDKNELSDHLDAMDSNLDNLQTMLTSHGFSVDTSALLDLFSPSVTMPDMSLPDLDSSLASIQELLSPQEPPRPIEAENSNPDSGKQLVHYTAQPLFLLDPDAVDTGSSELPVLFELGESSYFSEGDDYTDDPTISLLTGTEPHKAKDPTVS

[7] = target: T4, Voltage-gated N-type calcium channel alpha-1B subunit/Amyloid beta A4 precursor protein-binding family A member 1 (Homo sapiens, UniProt Q00975+Q02410); format: protein assay
[8] = target: T5, Microphthalmia-associated transcription factor (Homo sapiens, UniProt O75030); test: reducers of TRPM1 reporter luminescence, concentration series – cell-based, SK-MEL-5, cherry-picked, set 3, MITF inhibitor project, dose response (AID 493073); format: functional;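 note: SK-MEL-5 melanoma cells with luciferase driven by the MITF target TRPM1 promoter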
T5 sequence (O75030 whole entry): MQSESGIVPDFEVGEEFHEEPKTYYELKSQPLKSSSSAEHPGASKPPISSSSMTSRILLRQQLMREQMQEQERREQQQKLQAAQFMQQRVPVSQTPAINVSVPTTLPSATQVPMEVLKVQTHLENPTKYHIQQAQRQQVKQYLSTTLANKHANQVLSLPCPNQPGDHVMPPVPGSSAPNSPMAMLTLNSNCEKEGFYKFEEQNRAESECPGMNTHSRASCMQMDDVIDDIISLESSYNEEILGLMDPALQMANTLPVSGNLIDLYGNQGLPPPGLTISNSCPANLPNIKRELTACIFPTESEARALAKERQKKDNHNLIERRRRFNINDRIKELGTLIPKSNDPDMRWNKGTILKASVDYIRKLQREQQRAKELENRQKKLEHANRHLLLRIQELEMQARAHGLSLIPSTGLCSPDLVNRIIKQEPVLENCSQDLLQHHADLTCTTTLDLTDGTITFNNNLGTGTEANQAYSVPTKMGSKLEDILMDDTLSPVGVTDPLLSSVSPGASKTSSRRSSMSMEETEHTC

[9] = target: T4, Voltage-gated N-type calcium channel alpha-1B subunit/Amyloid beta A4 precursor protein-binding family A member 1; format: protein assay; remark: listed apart in the source
[10] = target: DNA dC->dU-editing enzyme APOBEC-3A (Homo sapiens, UniProt P31941); test: A3A deaminase inhibition for selectivity – biochemical, dose response (AID 504722); format: functional
[11] = target: DNA dC->dU-editing enzyme APOBEC-3G (Homo sapiens, UniProt Q9HC16); test: Dose Response confirmation of small molecule APOBEC3G DNA Deaminase Inhibitors via a fluorescence-based single-stranded DNA deaminase assay. [Related pubchem assays (depositor defined):AID493012, AID493028]; format: functional
[12] = target: Glyceraldehyde-3-phosphate dehydrogenase (Homo sapiens, UniProt P04406)
[13] = target: T6, Alkaline phosphatase, tissue-nonspecific isozyme (Homo sapiens, UniProt P05186); test: potency against alkaline phosphatase TNAP – biochemical, luminescent, dose response, SAR follow-up (AID 1056)
T6 sequence (P05186 whole entry): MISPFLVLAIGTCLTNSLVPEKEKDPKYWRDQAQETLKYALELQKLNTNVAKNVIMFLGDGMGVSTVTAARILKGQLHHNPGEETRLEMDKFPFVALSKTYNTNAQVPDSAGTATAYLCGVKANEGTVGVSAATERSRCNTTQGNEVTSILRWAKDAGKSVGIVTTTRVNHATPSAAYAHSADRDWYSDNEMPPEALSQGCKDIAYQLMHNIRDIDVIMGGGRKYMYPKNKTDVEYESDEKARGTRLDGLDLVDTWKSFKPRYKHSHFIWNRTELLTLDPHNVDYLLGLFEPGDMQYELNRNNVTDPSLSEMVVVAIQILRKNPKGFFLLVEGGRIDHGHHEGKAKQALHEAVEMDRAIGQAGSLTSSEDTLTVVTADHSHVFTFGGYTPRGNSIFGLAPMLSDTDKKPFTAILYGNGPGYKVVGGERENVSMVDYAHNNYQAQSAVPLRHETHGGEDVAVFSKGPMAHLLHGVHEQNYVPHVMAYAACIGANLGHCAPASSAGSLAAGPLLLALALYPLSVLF

[14] = target: T7, Rac GTPase-activating protein 1 (Homo sapiens, UniProt Q9H0H5); test: blockers of MgcRacGAP-driven Rac1 GTP hydrolysis – biochemical, ADP Hunter fluorescence, primary and confirmatory, confirmation (AID 624330); format: functional
T7 sequence (Q9H0H5 whole entry): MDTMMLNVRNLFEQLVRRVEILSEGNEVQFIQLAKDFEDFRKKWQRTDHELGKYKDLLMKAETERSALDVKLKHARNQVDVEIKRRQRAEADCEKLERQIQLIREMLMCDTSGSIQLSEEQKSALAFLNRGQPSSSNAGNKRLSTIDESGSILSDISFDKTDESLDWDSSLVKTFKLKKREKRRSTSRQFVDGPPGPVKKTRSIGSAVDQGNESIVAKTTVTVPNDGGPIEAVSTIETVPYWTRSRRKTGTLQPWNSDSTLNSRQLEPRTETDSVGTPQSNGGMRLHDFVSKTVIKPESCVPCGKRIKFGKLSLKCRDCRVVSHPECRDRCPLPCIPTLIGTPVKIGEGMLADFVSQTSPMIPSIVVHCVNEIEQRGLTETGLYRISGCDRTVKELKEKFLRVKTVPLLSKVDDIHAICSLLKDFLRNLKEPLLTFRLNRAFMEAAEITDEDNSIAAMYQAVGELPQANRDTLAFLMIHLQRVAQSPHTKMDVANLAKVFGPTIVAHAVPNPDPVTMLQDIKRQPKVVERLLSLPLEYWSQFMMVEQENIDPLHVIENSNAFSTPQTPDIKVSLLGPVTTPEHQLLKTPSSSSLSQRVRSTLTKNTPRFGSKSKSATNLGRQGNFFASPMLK

Hexokinase = target: T8, Hexokinase (Trypanosoma brucei, UniProt Q38C41); test: Confirmation assay for inhibitors of Trypanosoma brucei hexokinase 1-Analogue-first series. [Related pubchem assays (depositor defined):AID1430, AID1632, AID2516, AID2560, AID2579, AID2600, AID449725, AID492951]; format: functional
T8 sequence (Q38C41 whole entry): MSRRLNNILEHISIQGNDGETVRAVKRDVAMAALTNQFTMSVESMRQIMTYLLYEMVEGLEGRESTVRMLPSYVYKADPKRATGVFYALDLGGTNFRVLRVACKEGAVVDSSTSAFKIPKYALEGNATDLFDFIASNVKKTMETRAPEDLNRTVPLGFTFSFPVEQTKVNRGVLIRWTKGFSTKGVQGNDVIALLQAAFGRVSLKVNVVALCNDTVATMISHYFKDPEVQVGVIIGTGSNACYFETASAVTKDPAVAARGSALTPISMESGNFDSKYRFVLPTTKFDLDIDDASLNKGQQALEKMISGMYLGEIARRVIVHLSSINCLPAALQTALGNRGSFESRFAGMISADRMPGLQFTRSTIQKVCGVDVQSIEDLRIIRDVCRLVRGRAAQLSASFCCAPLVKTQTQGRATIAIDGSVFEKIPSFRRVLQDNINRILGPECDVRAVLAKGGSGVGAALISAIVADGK

T4 sequence (Q00975 whole entry): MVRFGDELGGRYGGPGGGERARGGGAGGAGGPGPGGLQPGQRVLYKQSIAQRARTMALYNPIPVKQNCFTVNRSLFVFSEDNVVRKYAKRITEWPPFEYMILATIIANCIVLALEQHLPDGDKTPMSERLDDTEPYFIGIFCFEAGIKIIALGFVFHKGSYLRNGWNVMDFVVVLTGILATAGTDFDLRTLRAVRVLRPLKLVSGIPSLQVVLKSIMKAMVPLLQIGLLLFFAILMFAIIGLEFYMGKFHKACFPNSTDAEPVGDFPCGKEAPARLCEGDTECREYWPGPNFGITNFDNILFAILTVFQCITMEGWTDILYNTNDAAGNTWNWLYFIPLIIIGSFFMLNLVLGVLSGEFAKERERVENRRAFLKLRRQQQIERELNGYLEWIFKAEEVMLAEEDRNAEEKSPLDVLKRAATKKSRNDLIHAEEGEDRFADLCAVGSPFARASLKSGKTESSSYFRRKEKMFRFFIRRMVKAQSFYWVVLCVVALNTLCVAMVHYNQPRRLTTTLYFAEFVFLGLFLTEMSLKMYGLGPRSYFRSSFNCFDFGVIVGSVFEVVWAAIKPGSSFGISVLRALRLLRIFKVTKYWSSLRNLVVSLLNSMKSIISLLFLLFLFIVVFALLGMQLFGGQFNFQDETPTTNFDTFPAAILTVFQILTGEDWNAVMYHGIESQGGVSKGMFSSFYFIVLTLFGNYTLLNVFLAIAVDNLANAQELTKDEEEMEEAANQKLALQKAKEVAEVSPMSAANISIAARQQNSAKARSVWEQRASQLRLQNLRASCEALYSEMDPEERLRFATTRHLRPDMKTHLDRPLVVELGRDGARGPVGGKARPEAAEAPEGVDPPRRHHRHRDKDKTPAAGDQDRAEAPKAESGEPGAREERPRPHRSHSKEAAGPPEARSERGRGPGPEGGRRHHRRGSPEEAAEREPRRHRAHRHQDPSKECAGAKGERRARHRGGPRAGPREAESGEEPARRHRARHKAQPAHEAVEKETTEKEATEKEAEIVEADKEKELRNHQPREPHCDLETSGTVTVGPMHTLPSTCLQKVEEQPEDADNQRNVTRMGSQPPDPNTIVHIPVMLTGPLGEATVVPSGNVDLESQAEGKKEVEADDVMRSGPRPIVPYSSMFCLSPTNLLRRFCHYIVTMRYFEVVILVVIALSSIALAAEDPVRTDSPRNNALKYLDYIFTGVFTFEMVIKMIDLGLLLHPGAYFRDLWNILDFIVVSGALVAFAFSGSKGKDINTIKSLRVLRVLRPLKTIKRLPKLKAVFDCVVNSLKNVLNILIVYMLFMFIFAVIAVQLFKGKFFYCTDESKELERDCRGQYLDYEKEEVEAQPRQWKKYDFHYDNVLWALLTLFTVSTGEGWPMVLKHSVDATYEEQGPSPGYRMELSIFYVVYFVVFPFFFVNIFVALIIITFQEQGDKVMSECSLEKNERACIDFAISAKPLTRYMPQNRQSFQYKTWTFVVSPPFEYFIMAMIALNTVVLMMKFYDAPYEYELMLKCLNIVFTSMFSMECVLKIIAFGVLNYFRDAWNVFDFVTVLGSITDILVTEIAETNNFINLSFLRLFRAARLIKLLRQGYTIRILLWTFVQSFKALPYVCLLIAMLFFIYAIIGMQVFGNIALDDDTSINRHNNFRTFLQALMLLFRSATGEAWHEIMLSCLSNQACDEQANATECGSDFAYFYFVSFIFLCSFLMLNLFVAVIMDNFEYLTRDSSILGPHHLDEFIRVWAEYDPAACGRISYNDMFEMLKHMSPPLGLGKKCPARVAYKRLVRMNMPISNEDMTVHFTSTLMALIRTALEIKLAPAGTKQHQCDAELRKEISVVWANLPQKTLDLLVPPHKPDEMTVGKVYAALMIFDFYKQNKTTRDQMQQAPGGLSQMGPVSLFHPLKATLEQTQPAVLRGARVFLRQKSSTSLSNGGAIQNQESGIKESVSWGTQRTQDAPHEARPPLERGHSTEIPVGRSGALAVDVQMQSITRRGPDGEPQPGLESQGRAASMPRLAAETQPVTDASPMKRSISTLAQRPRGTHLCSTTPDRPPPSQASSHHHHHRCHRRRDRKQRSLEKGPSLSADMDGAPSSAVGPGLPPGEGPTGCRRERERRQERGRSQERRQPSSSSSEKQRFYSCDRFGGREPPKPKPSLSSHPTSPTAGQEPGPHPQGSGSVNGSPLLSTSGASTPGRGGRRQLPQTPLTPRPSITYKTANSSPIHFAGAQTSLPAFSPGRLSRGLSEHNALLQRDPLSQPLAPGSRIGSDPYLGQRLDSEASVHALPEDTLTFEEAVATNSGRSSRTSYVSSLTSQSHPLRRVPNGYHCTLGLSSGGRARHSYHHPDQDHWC
T4 sequence (Q02410 whole entry): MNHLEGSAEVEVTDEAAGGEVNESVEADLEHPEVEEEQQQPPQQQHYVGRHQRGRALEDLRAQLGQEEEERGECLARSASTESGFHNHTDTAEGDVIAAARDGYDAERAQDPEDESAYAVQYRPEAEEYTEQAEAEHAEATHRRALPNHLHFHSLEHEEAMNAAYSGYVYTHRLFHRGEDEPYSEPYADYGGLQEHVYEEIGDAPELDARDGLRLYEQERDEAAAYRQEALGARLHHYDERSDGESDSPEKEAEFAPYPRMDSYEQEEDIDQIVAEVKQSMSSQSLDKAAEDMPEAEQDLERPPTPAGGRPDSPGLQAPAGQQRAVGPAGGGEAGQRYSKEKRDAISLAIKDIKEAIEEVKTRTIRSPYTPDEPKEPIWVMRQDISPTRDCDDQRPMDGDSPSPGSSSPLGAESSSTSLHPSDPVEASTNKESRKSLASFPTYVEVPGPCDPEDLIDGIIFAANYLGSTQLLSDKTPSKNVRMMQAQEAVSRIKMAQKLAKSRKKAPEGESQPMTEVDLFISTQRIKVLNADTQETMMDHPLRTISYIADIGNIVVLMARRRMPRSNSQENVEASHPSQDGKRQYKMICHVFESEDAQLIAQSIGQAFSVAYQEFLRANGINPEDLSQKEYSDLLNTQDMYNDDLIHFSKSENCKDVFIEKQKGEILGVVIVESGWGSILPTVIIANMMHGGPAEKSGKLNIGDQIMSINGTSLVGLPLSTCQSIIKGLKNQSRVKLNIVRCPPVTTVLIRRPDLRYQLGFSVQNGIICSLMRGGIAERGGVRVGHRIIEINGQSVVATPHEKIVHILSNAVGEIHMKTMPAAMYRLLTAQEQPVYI
Sequence of DNA dC->dU-editing enzyme APOBEC-3A (P31941 whole entry): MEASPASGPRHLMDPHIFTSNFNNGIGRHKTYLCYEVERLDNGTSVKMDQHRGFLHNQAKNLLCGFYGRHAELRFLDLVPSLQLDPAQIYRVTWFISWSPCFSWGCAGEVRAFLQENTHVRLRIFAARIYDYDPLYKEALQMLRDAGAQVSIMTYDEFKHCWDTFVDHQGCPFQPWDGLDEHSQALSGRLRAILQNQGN
T1 sequence (P98170 whole entry): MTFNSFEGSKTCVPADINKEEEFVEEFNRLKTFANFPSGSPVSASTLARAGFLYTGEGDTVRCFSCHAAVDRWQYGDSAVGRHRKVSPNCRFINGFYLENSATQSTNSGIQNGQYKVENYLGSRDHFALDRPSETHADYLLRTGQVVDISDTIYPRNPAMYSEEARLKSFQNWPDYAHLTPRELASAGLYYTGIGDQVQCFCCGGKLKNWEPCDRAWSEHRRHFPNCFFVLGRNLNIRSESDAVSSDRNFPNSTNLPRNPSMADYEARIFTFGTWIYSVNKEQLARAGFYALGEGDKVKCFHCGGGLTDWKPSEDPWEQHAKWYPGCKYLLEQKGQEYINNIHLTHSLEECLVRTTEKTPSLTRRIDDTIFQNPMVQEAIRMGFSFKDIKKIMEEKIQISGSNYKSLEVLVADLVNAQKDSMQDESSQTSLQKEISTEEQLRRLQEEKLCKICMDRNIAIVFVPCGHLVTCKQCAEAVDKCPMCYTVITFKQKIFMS
Sequence of DNA dC->dU-editing enzyme APOBEC-3G (Q9HC16 whole entry): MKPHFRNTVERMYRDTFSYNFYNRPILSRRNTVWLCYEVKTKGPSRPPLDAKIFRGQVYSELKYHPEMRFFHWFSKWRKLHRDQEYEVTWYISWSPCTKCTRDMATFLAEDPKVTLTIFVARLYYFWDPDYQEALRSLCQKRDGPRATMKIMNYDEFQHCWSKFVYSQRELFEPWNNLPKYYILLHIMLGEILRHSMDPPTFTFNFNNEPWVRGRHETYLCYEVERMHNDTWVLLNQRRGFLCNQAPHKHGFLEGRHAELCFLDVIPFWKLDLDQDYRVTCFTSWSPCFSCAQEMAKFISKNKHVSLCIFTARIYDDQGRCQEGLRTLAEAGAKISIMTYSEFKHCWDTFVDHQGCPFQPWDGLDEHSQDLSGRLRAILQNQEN
Sequence of Glyceraldehyde-3-phosphate dehydrogenase (P04406 whole entry): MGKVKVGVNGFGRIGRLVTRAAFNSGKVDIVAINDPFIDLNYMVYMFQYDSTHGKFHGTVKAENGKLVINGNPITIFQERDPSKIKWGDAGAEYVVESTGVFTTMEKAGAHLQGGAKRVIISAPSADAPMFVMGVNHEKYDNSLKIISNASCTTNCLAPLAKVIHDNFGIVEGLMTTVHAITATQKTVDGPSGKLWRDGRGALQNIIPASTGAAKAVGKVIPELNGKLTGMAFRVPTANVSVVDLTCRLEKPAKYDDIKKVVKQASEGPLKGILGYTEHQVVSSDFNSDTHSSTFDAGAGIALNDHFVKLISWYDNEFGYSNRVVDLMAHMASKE

**Q.** With `c1c(CN2CCCCC2)n[nH]c1C1CCCCC1` as the molecule, how does the IC50 [1] read?
**A.** > 100 µM (inactive)

**Q.** And the IC50 [2]?
**A.** > 100 µM (not active)

**Q.** Which IC50 (SUMO-activating enzyme [3]) does the source give for `O=C1C(C2=NC(c3ccccn3)C3C(=O)N(c4ccc(Cl)cc4Cl)C(=O)C23)=C(O)c2ccccc21` (stereo unspecified) here?
**A.** 34.6 µM (active)

**Q.** What about the AC50 [4] of the same molecule?
**A.** 13.6 µM (active)

**Q.** And the IC50 (SUMO-activating enzyme [5])?
**A.** 15 µM (active)

**Q.** Which EC50 [6] does the source give for `CCOc1cc(/C=C\[N+](=O)[O-])ccc1OCC(=O)N1CCOCC1` here?
**A.** 11 µM (active)

**Q.** What about the IC50 [7] of the same molecule?
**A.** 9.89 µM (active)

**Q.** And the AC50 [8]?
**A.** 7.35 µM (active)

**Q.** And the IC50 [9]?
**A.** 29.4 µM (active)

**Q.** Which results are given for `CCc1ccc(-n2c(=O)c3ccccc3n3c(S)nnc23)cc1.CN(C)C=O`?
**A.** IC50 [10]: > 100 µM (inactive); IC50 [11]: 4.9 µM (active)

**Q.** Which IC50 [12] does the source give for `Cc1ccccc1S(=O)(=O)Nc1nc2ccccc2nc1Cl` here?
**A.** > 100 µM (not active)

**Q.** What about the IC50 [13] of the same molecule?
**A.** > 100 µM (inactive)

**Q.** For `N#Cc1c(=O)c2nc(NCc3ccccc3)ncc2n2ccccc12`, which IC50 (SUMO-activating enzyme [3]) is on record?
**A.** 14.3 µM (active)

**Q.** What does the source list for `CN1CCN(C(=O)Cc2nc3ccccc3[nH]2)CC1`?
**A.** IC50 [1]: > 100 µM (inactive); IC50 [2]: > 100 µM (not active)

**Q.** Which results are given for `O=C(Nc1nnc(S)s1)c1ccco1`?
**A.** IC50 [10]: > 100 µM (inactive); IC50 [14]: 102 µM (active); IC50 [11]: 5.51 µM (active)

**Q.** With `N#Cc1cc2c([nH]c1=S)CCCC2` as the molecule, how does the IC50 [10] read?
**A.** > 100 µM (inactive)

**Q.** What about the IC50 [11] of the same molecule?
**A.** 5.16 µM (active)

**Q.** With `COc1ccc(CC(=O)Nc2cc(Cl)ccc2C(=O)O)cc1` as the molecule, how does the IC50 (Hexokinase) read?
**A.** > 25 µM (inactive)

**Q.** Which IC50 [12] does the source give for `COc1ccc(OC)c(S(=O)(=O)n2cc(C(N)=O)c3ccccc32)c1` here?
**A.** > 100 µM (not active)

**Q.** What about the IC50 [13] of the same molecule?
**A.** > 100 µM (inactive)

**Q.** Which IC50 [7] does the source give for `Cc1ccc(N(CC(O)COCc2ccco2)S(=O)(=O)c2ccc(C)cc2)cc1` (stereo unspecified) here?
**A.** 28 µM (active)

**Q.** What about the IC50 [9] of the same molecule?
**A.** > 50 µM (inactive)

**Q.** For `CC(C)c1cccc(C(=O)Nc2cc(Cl)ccc2C(=O)O)c1`, which IC50 (Hexokinase) is on record?
**A.** > 25 µM (inactive)

**Q.** Which results are given for `C/C(Cn1nnc([N+](=O)[O-])n1)=N\NC(=O)c1ccc(C)cc1`?
**A.** IC50 [1]: > 100 µM (inactive); IC50 [2]: > 100 µM (not active)

**Q.** What does the source list for `COC(=O)c1cc(-c2ccc3ccccc3c2)[nH]n1`?
**A.** IC50 [12]: > 100 µM (not active); IC50 [13]: 0.6 µM (active)

— ChEMBL document CHEMBL1201862, “PubChem BioAssay data set” (2004)
